We go through one compound from ChEMBL document CHEMBL4507319 (2021).

In assay [1] the target is mTOR/FKBP12A/FKBP12B (Homo sapiens) (UniProt P62942+P68106+P42345). The assay is described as follows: mTOR/FKBP12(h) Eurofins kinase panel. The format is protein-complex assay. The note with it: Compound concentration 1.0 uM.
Assay [2] concerns the target Death-associated protein kinase 1 (Homo sapiens) (UniProt P53355). The assay is described as follows: DAPK1(h) Eurofins kinase panel. Particulars: Compound concentration 1.0 uM.
For assay [3], the target named is Glycogen synthase kinase-3 beta (Homo sapiens) (UniProt P49841). The assay is described as follows: GSK3β(h) Eurofins kinase panel. The note with it: Compound concentration 1.0 uM.
Assay [4] deals with U2OS. The assay is described as follows: U2-OS cell line Proliferation assay. The format is functional, Homo sapiens. Particulars: time 3 day.
Assay [5] addresses Casein kinase I isoform gamma-1 (Homo sapiens) (UniProt Q9HCP0). In words: CK1gamma1(h) Eurofins kinase panel. The note with it: Compound concentration 1.0 uM.
The target of assay [6] is T1, Serine/threonine-protein kinase 3 (Homo sapiens) (UniProt Q13188).
T1 sequence (whole entry): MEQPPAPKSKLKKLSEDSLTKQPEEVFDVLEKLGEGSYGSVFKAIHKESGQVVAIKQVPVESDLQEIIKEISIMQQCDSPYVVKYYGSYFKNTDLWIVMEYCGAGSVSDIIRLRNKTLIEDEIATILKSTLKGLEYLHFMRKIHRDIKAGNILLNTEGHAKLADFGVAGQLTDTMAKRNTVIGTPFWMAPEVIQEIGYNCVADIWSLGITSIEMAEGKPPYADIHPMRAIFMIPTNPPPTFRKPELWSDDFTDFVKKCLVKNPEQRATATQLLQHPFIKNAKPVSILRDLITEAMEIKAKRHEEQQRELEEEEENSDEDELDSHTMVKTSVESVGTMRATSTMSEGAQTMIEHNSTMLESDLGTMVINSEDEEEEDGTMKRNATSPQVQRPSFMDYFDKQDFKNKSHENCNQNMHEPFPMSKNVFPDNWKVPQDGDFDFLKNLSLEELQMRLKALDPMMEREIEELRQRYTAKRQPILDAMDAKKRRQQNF
In words: MST2(h) Eurofins kinase panel. Particulars: Compound concentration 1.0 uM.

Assay [7] concerns the target T2, Ephrin type-A receptor 1 (Homo sapiens) (UniProt P21709).
T2 sequence (whole entry): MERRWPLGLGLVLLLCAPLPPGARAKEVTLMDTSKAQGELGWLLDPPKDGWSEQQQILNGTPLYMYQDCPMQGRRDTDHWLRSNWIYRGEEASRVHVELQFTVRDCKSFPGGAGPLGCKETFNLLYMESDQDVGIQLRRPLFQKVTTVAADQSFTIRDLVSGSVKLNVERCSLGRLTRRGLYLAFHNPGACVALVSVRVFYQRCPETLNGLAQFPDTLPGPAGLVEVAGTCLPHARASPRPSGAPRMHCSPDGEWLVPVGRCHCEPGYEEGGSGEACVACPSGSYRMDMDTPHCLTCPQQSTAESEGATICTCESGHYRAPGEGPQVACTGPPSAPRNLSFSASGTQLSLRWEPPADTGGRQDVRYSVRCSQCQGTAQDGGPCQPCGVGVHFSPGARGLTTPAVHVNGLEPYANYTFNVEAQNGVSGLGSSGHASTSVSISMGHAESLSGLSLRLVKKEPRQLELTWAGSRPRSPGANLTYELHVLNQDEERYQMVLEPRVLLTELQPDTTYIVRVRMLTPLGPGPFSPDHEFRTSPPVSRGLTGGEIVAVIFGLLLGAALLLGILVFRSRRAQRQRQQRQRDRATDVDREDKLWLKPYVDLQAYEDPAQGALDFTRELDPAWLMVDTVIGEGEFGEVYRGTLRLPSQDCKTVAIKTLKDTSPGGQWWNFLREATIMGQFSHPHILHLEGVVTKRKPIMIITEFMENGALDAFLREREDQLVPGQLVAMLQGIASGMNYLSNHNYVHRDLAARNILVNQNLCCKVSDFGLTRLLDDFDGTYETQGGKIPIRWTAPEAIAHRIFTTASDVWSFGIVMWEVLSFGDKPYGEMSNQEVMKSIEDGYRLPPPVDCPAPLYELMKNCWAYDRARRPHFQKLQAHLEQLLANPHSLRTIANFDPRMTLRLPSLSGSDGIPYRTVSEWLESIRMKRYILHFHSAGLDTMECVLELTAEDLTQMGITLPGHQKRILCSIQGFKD
In words: EphA1(h) Eurofins kinase panel. Particulars: Compound concentration 1.0 uM.

Assay [8] deals with T3, Rhodopsin kinase GRK1 (Homo sapiens) (UniProt Q15835).
T3 sequence (whole entry): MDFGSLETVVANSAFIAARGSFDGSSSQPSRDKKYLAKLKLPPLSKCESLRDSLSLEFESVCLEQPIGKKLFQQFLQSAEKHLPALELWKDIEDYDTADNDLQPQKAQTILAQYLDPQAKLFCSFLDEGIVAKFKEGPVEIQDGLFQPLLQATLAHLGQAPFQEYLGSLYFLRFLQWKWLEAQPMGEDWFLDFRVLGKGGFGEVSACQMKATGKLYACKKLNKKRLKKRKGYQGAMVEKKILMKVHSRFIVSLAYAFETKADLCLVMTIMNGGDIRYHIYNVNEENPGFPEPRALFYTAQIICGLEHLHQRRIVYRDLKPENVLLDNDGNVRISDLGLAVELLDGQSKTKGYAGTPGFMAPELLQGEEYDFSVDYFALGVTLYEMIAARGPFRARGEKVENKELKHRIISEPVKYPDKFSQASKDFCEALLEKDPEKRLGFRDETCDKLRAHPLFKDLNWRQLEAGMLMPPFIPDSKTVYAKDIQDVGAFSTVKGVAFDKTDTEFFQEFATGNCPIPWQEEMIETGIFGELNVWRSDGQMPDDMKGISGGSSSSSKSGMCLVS
The assay is described as follows: GRK1(h) Eurofins kinase panel. The note with it: Compound concentration 1.0 uM.

Assay [9] deals with Serine/threonine-protein kinase PAK 4 (Homo sapiens) (UniProt O96013). The assay is described as follows: PAK4(h) Eurofins kinase panel. The note with it: Compound concentration 1.0 uM.
Assay [10] addresses Fibroblast growth factor receptor 4 (Homo sapiens) (UniProt P22455). In words: FGFR4(h) Eurofins kinase panel. The note with it: Compound concentration 1.0 uM.
The target of assay [11] is Bone morphogenetic protein receptor type-1B (Homo sapiens) (UniProt O00238). The assay is described as follows: ALK6(h) Eurofins kinase panel. The note with it: Compound concentration 1.0 uM.
In assay [12] the target is Interleukin-1 receptor-associated kinase 1 (Homo sapiens) (UniProt P51617). The assay is described as follows: IRAK1(h) Eurofins kinase panel. Particulars: Compound concentration 1.0 uM.
Assay [13] addresses Protein kinase C beta type (Homo sapiens) (UniProt P05771). The assay is described as follows: PKCbetaII (h) Eurofins kinase panel. Particulars: Compound concentration 1.0 uM.
The target of assay [14] is T4, Serine/threonine-protein kinase STK11 (Homo sapiens) (UniProt Q15831).
T4 sequence (whole entry): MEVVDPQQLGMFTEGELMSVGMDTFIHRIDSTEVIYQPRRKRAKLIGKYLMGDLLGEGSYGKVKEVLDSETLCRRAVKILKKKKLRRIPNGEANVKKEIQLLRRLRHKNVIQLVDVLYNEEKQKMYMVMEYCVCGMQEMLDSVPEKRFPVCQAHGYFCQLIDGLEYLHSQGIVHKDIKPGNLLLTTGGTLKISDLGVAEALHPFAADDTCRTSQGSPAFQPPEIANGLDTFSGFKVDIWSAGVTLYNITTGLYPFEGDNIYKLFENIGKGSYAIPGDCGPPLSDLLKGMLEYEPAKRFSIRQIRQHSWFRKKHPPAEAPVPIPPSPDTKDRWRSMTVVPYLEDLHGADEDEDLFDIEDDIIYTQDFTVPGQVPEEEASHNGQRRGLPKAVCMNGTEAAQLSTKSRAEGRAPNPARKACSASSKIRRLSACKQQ
In words: LKB1(h) Eurofins kinase panel. The note with it: Compound concentration 1.0 uM.

Sequence of Death-associated protein kinase 1 (Homo sapiens) (P53355 whole entry, looked up): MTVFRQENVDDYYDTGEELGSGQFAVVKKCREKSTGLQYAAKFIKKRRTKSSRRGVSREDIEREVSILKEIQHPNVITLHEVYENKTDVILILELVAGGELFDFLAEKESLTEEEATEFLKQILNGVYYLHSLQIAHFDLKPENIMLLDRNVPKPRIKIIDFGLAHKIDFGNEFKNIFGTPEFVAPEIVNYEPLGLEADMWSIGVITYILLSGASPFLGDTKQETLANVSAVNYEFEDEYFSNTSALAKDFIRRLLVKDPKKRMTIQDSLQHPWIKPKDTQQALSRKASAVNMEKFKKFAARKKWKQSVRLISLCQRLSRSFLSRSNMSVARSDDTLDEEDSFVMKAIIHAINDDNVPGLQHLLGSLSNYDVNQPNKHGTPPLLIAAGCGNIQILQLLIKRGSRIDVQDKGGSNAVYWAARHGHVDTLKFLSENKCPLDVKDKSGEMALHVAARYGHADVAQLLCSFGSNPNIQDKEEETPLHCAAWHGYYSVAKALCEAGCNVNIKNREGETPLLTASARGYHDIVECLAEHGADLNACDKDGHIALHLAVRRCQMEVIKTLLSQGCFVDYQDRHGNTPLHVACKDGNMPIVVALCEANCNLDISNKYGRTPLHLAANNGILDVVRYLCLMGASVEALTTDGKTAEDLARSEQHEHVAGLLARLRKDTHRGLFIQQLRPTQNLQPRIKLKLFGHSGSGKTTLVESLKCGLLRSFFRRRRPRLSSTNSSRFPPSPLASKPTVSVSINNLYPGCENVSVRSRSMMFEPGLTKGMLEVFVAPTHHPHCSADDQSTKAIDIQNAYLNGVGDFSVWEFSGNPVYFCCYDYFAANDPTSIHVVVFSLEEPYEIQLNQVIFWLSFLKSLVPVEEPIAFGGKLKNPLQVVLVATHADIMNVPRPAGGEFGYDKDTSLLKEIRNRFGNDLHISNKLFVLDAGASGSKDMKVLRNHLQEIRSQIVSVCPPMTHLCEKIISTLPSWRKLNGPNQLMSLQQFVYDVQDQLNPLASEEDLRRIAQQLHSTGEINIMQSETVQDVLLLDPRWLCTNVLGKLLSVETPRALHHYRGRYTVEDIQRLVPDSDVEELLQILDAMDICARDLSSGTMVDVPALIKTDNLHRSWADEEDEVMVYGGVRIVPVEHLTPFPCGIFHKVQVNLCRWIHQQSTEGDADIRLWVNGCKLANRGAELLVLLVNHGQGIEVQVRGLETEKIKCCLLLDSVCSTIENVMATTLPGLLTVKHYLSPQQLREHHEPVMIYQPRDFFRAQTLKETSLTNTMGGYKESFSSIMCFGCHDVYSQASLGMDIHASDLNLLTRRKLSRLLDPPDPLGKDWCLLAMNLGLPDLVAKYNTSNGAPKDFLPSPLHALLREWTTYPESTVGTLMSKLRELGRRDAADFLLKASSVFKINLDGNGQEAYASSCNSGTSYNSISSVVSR
Sequence of Bone morphogenetic protein receptor type-1B (Homo sapiens) (O00238 whole entry): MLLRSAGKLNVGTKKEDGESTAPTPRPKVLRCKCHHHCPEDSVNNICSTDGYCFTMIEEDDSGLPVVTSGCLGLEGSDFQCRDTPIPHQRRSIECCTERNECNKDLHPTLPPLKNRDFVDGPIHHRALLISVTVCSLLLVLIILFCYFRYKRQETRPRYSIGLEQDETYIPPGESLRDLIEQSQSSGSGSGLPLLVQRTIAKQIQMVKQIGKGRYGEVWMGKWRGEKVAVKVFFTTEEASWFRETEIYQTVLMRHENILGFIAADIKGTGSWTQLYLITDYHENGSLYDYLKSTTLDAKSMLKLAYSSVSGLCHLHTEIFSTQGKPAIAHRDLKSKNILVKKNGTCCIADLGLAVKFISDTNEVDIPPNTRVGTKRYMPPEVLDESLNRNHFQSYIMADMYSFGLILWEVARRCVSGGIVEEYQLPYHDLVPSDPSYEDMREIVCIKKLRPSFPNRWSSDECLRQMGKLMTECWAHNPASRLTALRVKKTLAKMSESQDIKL
Sequence of Protein kinase C beta type (Homo sapiens) (P05771 2-671 limits assumed): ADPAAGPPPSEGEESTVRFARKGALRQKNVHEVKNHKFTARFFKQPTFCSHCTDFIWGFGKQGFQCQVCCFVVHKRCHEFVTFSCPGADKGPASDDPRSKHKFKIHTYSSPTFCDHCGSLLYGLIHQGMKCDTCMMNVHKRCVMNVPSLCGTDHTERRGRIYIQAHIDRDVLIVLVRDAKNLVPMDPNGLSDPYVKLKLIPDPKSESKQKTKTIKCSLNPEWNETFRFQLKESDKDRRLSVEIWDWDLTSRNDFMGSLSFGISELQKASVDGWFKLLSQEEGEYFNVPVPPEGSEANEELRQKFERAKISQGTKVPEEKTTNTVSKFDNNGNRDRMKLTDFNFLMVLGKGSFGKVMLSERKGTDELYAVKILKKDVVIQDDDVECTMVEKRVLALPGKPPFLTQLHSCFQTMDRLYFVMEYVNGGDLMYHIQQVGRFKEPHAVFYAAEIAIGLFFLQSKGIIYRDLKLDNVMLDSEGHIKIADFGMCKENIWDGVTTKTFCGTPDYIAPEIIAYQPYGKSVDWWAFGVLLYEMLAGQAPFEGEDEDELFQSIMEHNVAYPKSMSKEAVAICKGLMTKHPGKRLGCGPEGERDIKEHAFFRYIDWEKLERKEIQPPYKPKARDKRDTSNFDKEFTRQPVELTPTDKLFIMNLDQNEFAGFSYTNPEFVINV
Sequence of Interleukin-1 receptor-associated kinase 1 (Homo sapiens) (P51617 whole entry, looked up): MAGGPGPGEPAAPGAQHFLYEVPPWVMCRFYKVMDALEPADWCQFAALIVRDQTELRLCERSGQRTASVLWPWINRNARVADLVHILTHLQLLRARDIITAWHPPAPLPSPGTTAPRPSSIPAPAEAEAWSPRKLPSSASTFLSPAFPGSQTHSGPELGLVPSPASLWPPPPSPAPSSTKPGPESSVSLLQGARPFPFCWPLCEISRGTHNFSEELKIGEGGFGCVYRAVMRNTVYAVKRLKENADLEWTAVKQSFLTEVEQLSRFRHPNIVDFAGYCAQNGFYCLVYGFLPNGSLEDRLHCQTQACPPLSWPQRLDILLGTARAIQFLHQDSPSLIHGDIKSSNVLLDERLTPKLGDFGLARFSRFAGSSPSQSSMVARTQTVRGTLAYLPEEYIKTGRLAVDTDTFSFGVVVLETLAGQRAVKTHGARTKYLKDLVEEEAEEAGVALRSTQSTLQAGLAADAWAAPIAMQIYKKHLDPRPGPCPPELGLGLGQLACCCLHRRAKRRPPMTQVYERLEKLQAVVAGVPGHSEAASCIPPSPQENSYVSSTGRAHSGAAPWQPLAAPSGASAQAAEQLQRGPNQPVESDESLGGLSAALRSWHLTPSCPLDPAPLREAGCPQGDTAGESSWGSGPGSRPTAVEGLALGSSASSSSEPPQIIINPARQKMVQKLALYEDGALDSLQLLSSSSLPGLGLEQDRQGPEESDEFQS
Sequence of mTOR/FKBP12A/FKBP12B (Homo sapiens) (P62942 2-108 limits assumed, other chains not shown): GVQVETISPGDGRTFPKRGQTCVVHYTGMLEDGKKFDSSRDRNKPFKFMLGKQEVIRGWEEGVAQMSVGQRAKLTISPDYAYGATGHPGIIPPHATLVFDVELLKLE
Sequence of mTOR/FKBP12A/FKBP12B (Homo sapiens) (P68106 whole entry partner, other chains not shown): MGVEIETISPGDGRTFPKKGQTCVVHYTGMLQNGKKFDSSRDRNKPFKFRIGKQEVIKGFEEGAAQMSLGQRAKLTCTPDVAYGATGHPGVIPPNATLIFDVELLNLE
Sequence of Fibroblast growth factor receptor 4 (Homo sapiens) (P22455 22-802 limits assumed): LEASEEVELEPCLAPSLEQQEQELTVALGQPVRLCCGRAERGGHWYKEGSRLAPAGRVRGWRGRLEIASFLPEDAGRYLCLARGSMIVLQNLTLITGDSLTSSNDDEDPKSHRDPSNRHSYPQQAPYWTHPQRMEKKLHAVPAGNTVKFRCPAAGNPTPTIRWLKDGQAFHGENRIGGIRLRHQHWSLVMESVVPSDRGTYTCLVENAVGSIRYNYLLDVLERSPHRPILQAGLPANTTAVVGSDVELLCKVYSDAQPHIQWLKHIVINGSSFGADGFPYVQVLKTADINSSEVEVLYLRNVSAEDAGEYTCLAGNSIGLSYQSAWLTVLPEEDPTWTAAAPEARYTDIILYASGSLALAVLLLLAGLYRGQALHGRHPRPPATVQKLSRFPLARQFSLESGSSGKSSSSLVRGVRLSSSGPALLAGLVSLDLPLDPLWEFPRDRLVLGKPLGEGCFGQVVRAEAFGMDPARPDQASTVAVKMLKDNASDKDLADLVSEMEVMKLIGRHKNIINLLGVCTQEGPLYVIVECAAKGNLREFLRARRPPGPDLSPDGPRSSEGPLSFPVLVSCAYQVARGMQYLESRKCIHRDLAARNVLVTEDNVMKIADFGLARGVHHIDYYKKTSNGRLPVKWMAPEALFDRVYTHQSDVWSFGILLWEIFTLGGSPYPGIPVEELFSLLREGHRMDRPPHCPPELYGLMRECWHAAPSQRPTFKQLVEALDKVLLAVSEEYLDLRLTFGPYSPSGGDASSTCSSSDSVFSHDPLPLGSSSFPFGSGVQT
Sequence of Casein kinase I isoform gamma-1 (Homo sapiens) (Q9HCP0 whole entry, looked up, canonical isoform): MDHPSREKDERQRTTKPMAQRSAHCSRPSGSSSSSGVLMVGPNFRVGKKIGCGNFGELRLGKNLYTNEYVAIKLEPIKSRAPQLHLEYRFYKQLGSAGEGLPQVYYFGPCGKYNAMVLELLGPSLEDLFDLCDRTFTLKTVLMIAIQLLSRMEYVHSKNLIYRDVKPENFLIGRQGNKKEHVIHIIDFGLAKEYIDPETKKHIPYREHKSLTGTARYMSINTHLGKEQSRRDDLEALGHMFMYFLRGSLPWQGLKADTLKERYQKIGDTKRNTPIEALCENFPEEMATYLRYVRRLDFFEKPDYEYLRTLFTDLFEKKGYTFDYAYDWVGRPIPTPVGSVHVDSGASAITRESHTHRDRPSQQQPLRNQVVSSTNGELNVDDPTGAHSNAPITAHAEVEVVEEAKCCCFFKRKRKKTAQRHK

In the case of `CCc1ccccc1C(=O)Nc1n[nH]c2c(C)c(F)c(C3C(C#N)=C(C)N(C)C(C)=C3C#N)cc12` [BAY-3827], the % residual kinase activity in [1] is 98%; in assay [2], 100%; in [3], 58%; in [5] it was 101%; in assay [6] it was 47%; in assay [7], 98%. Also, the % residual kinase activity was 72% in [8]; 91% in [9]; 99% in assay [10]; 99% in [11]; 99% in assay [12]; 42% in assay [13]. In addition, the % residual kinase activity in [14] was 90%. In assay [4], the “Cell Proliferation IC50” value is 18.7 µM.
